Data as given in patent US5990170A, “Therapeutic use of mono and bicarboxylic acid amides active at the peripheral cannabinoid receptor” (Lifegroup S.p.A., priority 1994, dated 1999).
Like-named read-outs stand apart in the source and are kept apart here.

Tests used:
RBL-2H3 cells = assay: Inhibition of 3H-serotonin release induced by ADNP/DNP-HSA immunogenic stimulation in RBL-2H3 cells; type: cell-based, rat; conditions: for 3H-serotonin net release inhibition (%): + anandamide (12.5 μM) (Table 4); for functional effect following receptor activation (serotonin release): result in words; for inhibition at 100 µM: 100 μM (Table 8); for EC50: 15 minutes release period (Table 9)
[1] = target: T1, CB2 receptor (RBL-2H3 cell membranes) (Rattus norvegicus, UniProt Q9QZN9); assay: Competitive displacement of 3H-WIN 55,212-2 binding to RBL-2H3 cell membranes; conditions: for inhibition at 10 µM: read-out: % Displacement
T1 construct: Preparation of Plasmatic Membranes of RBL-2H3 Cells; endogenous in cells; host or cells: RBL-2H3 (rat basophilic leukemia) cell membranes
T1 sequence (Q9QZN9 1-360): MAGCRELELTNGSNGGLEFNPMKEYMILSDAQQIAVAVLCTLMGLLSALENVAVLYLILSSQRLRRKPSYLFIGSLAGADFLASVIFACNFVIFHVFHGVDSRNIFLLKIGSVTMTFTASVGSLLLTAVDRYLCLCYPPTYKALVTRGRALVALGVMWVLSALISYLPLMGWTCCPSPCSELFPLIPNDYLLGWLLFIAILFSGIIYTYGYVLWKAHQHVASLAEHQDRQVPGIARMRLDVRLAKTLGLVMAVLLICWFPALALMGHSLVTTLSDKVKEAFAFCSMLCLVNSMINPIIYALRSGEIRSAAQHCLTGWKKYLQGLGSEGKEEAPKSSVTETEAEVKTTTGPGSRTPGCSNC
Method: RBL-2H3 cells (100×10^6), frozen at -80° C., were thawed with 4 ml of Tris-HCl buffer solution 50 mM (pH 7.4), added with 0.25% w/v of Tripsin inhibitor, TYPE II-S: SOY BEAN® (distributed by Sigma). The cells were resuspended in the buffer and homogenized. The homogenate was centrifuged at 1500×g at 4° C. for 10 min. The supernatant obtained was collected and the precipitate was resuspended in 4 ml of the previous buffer. The resuspended precipitate was homogenized and centrifuged again at 1500×g at 4° C. for 5-10 min. The resulting supernatant was combined to the supernatant previously obtained and centrifuged at 5000×g for 10 min. After centrifugation, the supernatant was collected and further centrifuged at 40,000×g at 4° C. for 30 min. The resulting precipitate was resuspended in 0.5 ml of the buffer solution described above, with addition of 1% Bovine Serum Albumin fatty acid free. The obtained suspension was centrifuged at 40,000×g at 4° C. for 30 min. The resulting precipitate was collected and resuspended in buffer solution containing 50 mM Tris HCl, 1 mM Tris-EDTA, 3 mM MgCl2, pH 7.4, in order to obtain a proteic concentration of 1 μg/μl approx. This preparation may be used fresh, or frozen at -80° C. and utilized within few days.
Non-radioactive WIN 55,212-2 (1 μM) was used to inhibit specific binding. […] The competitors were added to the binding mixture prior to the labelled ligand. In both cases, for an evaluation of the reference specific binding, ethanol and DMSO were added at the same final concentration to the total binding and to the aspecific one, also in the absence of competitors.
WIN 55,212-2 was used at a concentration of 3 μM, whereas the other compounds were used at a concentration of 10 μM.
Incubation was carried out in the presence of 1% DMSO. The values of Inhibitory Concentration 50 (IC50) are expressed as means ± SEM, after the number of experiments reported hereinbelow.

[2] = target: T1, CB2 receptor (RBL-2H3 cell membranes); assay: as above; conditions: competitor 10 μM; 0.1% DMSO
[3] = Solubility in water and organic solvents; conditions: for solubility in water: result in words
[4] = Rattus norvegicus, RBL-2H3, 0.25 h, read-out: 3H-serotonin net release (%)
[5] = read-out: ED50, inhibition of 3H-serotonin release, + anandamide (12.5 μM) (Table 5), 15 min
[6] = dmso, organic solvent or mixture
[7] = ethanol, organic solvent or mixture
[8] = Rattus norvegicus, RBL-2H3, 0.25 h, 0.1% DMSO and 0.1% ethanol (Table 3), read-out: ED50 (the source's name)
[9] = Rattus norvegicus, RBL-2H3, read-out: 3H-serotonin net release inhibition (%)
[10] = Rattus norvegicus, RBL-2H3, 0.25 h, 0.1% DMSO and 0.1% ethanol (Table 3), read-out: 3H-serotonin net release (%)
[11] = Rattus norvegicus, RBL-2H3, read-out: 3H-serotonin release inhibition %, 0.2% DMSO
[12] = Rattus norvegicus, RBL-2H3, read-out: 3H-serotonin release inhibition %, 1% DMSO
[13] = Rattus norvegicus, RBL-2H3, read-out: EC50, concentration inhibiting by 50% the net release of 3H serotonin, 0.2% DMSO
[14] = Rattus norvegicus, RBL-2H3, read-out: EC50, concentration inhibiting by 50% the net release of 3H serotonin, 1% DMSO
[15] = hot ethanol, organic solvent or mixture
[16] = Rattus norvegicus, RBL-2H3, read-out: 3H-serotonin release inhibition %, 0.2% DMSO, 50 μM (Table 8)

CCCCCCC(C)(C)c1cc(O)c2c(c1)OC(C)(C)[C@@H]1CCC(=O)C[C@@H]21 (relative stereo) [Nabilone, 3-(1,1-dimethylheptyl)-6,6a,7,8,10,10a-hexahydro-1-hydroxy-6,6-dimethyl-9H-dibenzo-[b,d]-pyran-9-one, reference compound]
3H-serotonin net release inhibition (%) (RBL-2H3 cells; 5 μM): 50% | activity at 10 µM (RBL-2H3 cells; [4]): 0% | IC50 (RBL-2H3 cells; Rattus norvegicus, RBL-2H3, 0.25 h, read-out: ED50): 2.8 µM | inhibition at 5 µM (RBL-2H3 cells; Rattus norvegicus, RBL-2H3, read-out: 3H-serotonin net release inhibition (%), 5 μM, - anandamide (Table 4)): 90% | IC50 (RBL-2H3 cells; [5]): 5 µM | functional effect following receptor activation (serotonin release) (RBL-2H3 cells): able to inhibit, in a concentration-dependent way, RBL cells immunogenic activation | IC50 [1]: 0.0026 ± 0.0014 µM | inhibition at 10 µM [1]: 100% | binding to the peripheral receptor ([1]; result in words): able to bind to the receptor and to compete

C=C(C)[C@@H]1CCC(C)=C[C@H]1c1c(O)cc(CCCCC)cc1O [Cannabidiol, cannabidiol, reference compound]
IC50 [1]: > 1 µM

CCCCCCCCCCCCCCCC(=O)N[C@@H](CO)c1ccccc1 [Example 1, N-palmitoyl-[(R)-2-amino-2-phenylethanol]]
Specific binding [2]: 325 | solubility [3, 6]: > 10000 µg/mL | solubility [3, 7]: > 10000 µg/mL | solubility in water [3]: scarcely soluble | 3H-serotonin net release inhibition (%) (RBL-2H3 cells; 3 μM): 39% | activity at 3 µM (RBL-2H3 cells; Rattus norvegicus, RBL-2H3, 0.25 h, 3 μM, 0.1% DMSO and 0.1% ethanol (Table 3), read-out: 3H-serotonin net release (%)): 0% | IC50 (RBL-2H3 cells; [8]): 0.6 µM | inhibition at 3 µM (RBL-2H3 cells; [9]): 100% | effect of anandamide co-incubation on the ability to inhibit serotonin release (RBL-2H3 cells; co-incubation with anandamide, in words): reduces the ability | IC50 (RBL-2H3 cells; [5]): 4 µM | functional effect following receptor activation (serotonin release) (RBL-2H3 cells): can inhibit the effects induced by mast cell activation and exert an effect that is higher than or comparable to the one of cannabinoids | IC50 [1]: 0.0004 µM | inhibition at 10 µM [1]: 77%

CCCCCC/C=C\CCCCCCCC(=O)NCCO [Example 19, N-(2-hydroxyethyl)-palmitoleylamide]
solubility [3, 6]: > 10000 µg/mL | solubility [3, 7]: > 10000 µg/mL | solubility in water [3]: scarcely soluble | activity at 100 µM (RBL-2H3 cells; [10]): 100% | inhibition at 10 µM [1]: 100%

CCCCCCCCCCCC(=O)NCCO [Example 22, N-(2-hydroxyethyl)-lauroylamide]
solubility ([3]; chloroform, organic solvent or mixture): > 10000 µg/mL | solubility [3, 6]: > 10000 µg/mL | solubility in water [3]: scarcely soluble | inhibition at 100 µM (RBL-2H3 cells; [11]): 100% | inhibition at 100 µM (RBL-2H3 cells; [12]): 91% | EC50 (RBL-2H3 cells; [13]): 35 µM | EC50 (RBL-2H3 cells; [14]): 11 µM | IC50 ([1]; RBL-2H3 cell membranes, 1% DMSO, means ± SEM): 0.0181 µM | inhibition at 10 µM [1]: 72%

O=C(/C=C/CCCCCCCCC(=O)NCCO)NCCO [Example 26, N,N'-bis(2-hydroxyethyl)-trans-2-dodecenediamide]
Specific binding [2]: 402 | solubility [3, 6]: > 10000 µg/mL | solubility [3, 7]: > 10000 µg/mL | solubility ([3]; water): > 10000 µg/mL | 3H-serotonin net release inhibition (%) (RBL-2H3 cells; 50 μM): 48% | activity at 50 µM (RBL-2H3 cells; Rattus norvegicus, RBL-2H3, 0.25 h, 50 μM, 0.1% DMSO and 0.1% ethanol (Table 3), read-out: 3H-serotonin net release (%)): 21% | IC50 (RBL-2H3 cells; [8]): 28 µM | inhibition at 100 µM (RBL-2H3 cells; [11]): > 95% | inhibition at 100 µM (RBL-2H3 cells; [12]): > 95% | inhibition at 50 µM (RBL-2H3 cells; [9]): 79% | IC50 (RBL-2H3 cells; [5]): 50 µM | inhibition at 10 µM [1]: 72%

CCCCCCCCCCCCCCCC(=O)NCCOP(=O)(O)O [Example 27, N-palmitoylethanolamide phosphate]
Specific binding [2]: 843 | solubility [3, 6]: > 10000 µg/mL | solubility ([3]; phosphate buffer, pH 7.4, aqueous buffer): > 1000 µg/mL | solubility in water [3]: scarcely soluble | 3H-serotonin net release inhibition (%) (RBL-2H3 cells; 7.5 μM): 46% | activity at 7.5 µM (RBL-2H3 cells; Rattus norvegicus, RBL-2H3, 0.25 h, 7.5 μM, 0.1% DMSO and 0.1% ethanol (Table 3), read-out: 3H-serotonin net release (%)): 0% | IC50 (RBL-2H3 cells; [8]): 3.8 µM | inhibition at 7.5 µM (RBL-2H3 cells; [9]): 100% | IC50 (RBL-2H3 cells; [5]): 9.5 µM | functional effect following receptor activation (serotonin release) (RBL-2H3 cells): can inhibit the effects induced by mast cell activation and exert an effect that is higher than or comparable to the one of cannabinoids | IC50 [1]: 0.0076 µM | inhibition at 10 µM [1]: 42%

C=CCCCCCCCCC(=O)NCCO [Example 28, N-(2-hydroxyethyl)-10-undecenoylamide]
solubility [3, 6]: > 10000 µg/mL | solubility [3, 7]: > 10000 µg/mL | solubility in water [3]: scarcely soluble | activity at 100 µM (RBL-2H3 cells; [10]): 100% | inhibition at 10 µM [1]: 77%

CCCCCCCCCCCCCCCC(=O)N1CCOCC1 [Example 29, N-palmitoyl-morpholine]
solubility [3, 6]: > 10000 µg/mL | solubility [3, 15]: > 10000 µg/mL | solubility in water [3]: scarcely soluble | inhibition at 50 µM (RBL-2H3 cells; [16]): 36% | inhibition at 30 µM (RBL-2H3 cells; Rattus norvegicus, RBL-2H3, read-out: 3H-serotonin release inhibition %, 1% DMSO, 30 μM (Table 8)): 88% | EC50 (RBL-2H3 cells; [13]): 42 µM | EC50 (RBL-2H3 cells; [14]): 3.5 µM

CCCCCCCCCCCCCCCC(=O)N[C@H](C)CO [Example 30, N-palmitoyl-[R(-)-2-amino-1-propanol]]
solubility [3, 6]: > 5000 µg/mL | solubility [3, 7]: > 10000 µg/mL | solubility in water [3]: scarcely soluble | EC50 (RBL-2H3 cells; [13]): 3.9 µM

CCCCCCCCCCCCCCCC(=O)N[C@@H](C)CO [Example 31, N-palmitoyl-[S(+)-2-amino-1-propanol]]
solubility [3, 6]: > 5000 µg/mL | solubility [3, 7]: > 10000 µg/mL | solubility in water [3]: scarcely soluble | EC50 (RBL-2H3 cells; [13]): 7.7 µM

CCCCCCCCCCCCCCCC(=O)NC[C@@H](C)O [Example 32, N-palmitoyl-[R(-)-1-amino-2-propanol]]
solubility [3, 7]: > 5000 µg/mL | solubility in water [3]: scarcely soluble | EC50 (RBL-2H3 cells; [13]): 0.73 µM

CCCCCCCCCCCCCCCC(=O)NC[C@H](C)O [Example 33, N-palmitoyl-[S(+)-1-amino-2-propanol]]
solubility [3, 7]: > 5000 µg/mL | solubility in water [3]: scarcely soluble | EC50 (RBL-2H3 cells; [13]): 4.7 µM

CCCCCCCCCCCCCCCC(=O)NCCc1ccc(O)cc1 [Example 34, N-(p-hydroxy-phenylethyl)-palmitoylamide]
solubility [3, 6]: > 10000 µg/mL | solubility [3, 7]: > 10000 µg/mL | solubility in water [3]: scarcely soluble | EC50 (RBL-2H3 cells; [13]): 13 µM | EC50 (RBL-2H3 cells; [14]): 0.36 µM

CCCCCCCCCCCCCCCC(=O)NCCOC [Example 35, N-(2-methoxy-ethyl)-palmitoylamide]
solubility [3, 7]: > 10000 µg/mL | solubility in water [3]: scarcely soluble | EC50 (RBL-2H3 cells; [13]): 6.3 µM | EC50 (RBL-2H3 cells; [14]): 9.2 µM

CCCCCCCCCCCC(=O)N1CCOCC1 [Example 36, N-lauroyl-morpholine]
solubility [3, 6]: > 10000 µg/mL | solubility [3, 7]: > 10000 µg/mL | solubility in water [3]: scarcely soluble | activity at 100 µM (RBL-2H3 cells; [10]): 51%

CCCCCCCCCCCCCCCCCC(=O)N1CCOCC1 [Example 37, N-stearoyl-morpholine]
solubility [3, 15]: > 10000 µg/mL | solubility in water [3]: scarcely soluble | EC50 (RBL-2H3 cells; [14]): 15 µM

CCCCCCCCCCCCCCCCCC(=O)NCc1ccc(O)c(OC)c1 [Example 39, N-(4-hydroxy-3-methoxybenzyl)-stearoylamide]
solubility [3, 6]: > 10000 µg/mL | solubility [3, 7]: > 10000 µg/mL | solubility in water [3]: scarcely soluble | activity at 50 µM (RBL-2H3 cells; [4]): 68% | inhibition at 50 µM (RBL-2H3 cells; [16]): 32% | inhibition at 100 µM (RBL-2H3 cells; [12]): 67%
